BigSolDB 2.1

c1cnc2[nH]ccc2c1
solubility (mole fraction)
Conditions	278.15 K	283.15 K	288.15 K	293.15 K	298.15 K	303.15 K	308.15 K	313.15 K	318.15 K	323.15 K
in THF	0.343	0.361	0.377	0.397	0.419	0.436	0.458	0.479	0.5	0.523
in acetone	0.262	0.282	0.301	0.322	0.341	0.361	0.383	0.402	0.423	0.443
in acetonitrile	0.11	0.116	0.124	0.134	0.145	0.159	0.174	0.193	0.214	0.242
in ethanol	0.152	0.172	0.191	0.211	0.232	0.252	0.275	0.299	0.326	0.356
in ethyl acetate	0.21	0.217	0.226	0.237	0.251	0.265	0.283	0.302	0.324	0.346
in isopropanol	0.204	0.217	0.231	0.247	0.262	0.279	0.298	0.315	0.336	0.36
in methanol	0.228	0.238	0.25	0.262	0.277	0.293	0.31	0.33	0.351	0.372
in n-hexane	0.0192	0.0201	0.0215	0.0234	0.0256	0.0279	0.0307	0.0337	0.0376	0.0425
in n-propanol	0.19	0.202	0.215	0.233	0.253	0.272	0.291	0.312	0.333	0.359
